Measurements as given in US20100069393A1, “METHOD OF TREATMENT AND AGENTS USEFUL FOR SAME” (PRANA BIOTECHNOLOGY LIMITED, priority 2006, published 2010).

Legend:
[1] = Cytotoxicity: viability of M17 cells; conditions: human, M17 neuroblastoma cells, Cytotoxicity (% viable at 1 and 10 uM); for viability at 1 uM: test compound 1 uM; for viability at 10 uM: test compound 10 uM
[2] = Neurotoxicity assay: MTS viability of primary cortical neuronal cultures; format: cell-based, mouse; conditions: BL6Jx129sv, mouse, primary cortical neuronal cultures, Neuronal cells, read-out: Cytotoxicity (% viable at 1 and 10 uM); for viability at 4 days, 1 uM: test compound 1 uM; for viability at 4 days, 10 uM: test compound 10 uM
Protocol: Media was then replaced with Neurobasal media (Invitrogen Life Technologies) and B27 supplements (Invitrogen Life Technologies). Cultures were maintained at 37° C. in 5% CO2. Prior to experimentation, the culture medium was replaced with Neurobasal media and B27 minus antioxidants (Invitrogen Life Technologies).
Cell viability is determined using the MTS assay. Culture medium is replaced with fresh neurobasal medium plus B27 supplements minus antioxidants. 1/10th volume MTS solution (Cell Titre 96 Aqueous One, Promega Corporation) and incubated at 37° C., 2 hrs. 200 microlitre aliquots are measured with a spectrophotometer at 560 nm.
Neuronal cortical cells were cultured for five days as per Assay 2 in NB media and B27 supplement.
On day six the test compounds were added to the neuronal cell cultures in NB media and B27 supplement minus antioxidants.
Test compounds were dissolved in 100% DMSO to a concentration of 2.5 mM (10 mM if excess compound was weighed out per vial—then diluted to 2.5 mM). […] Test compounds were not added directly to cells, instead they were added to a 48 well ‘Drug Plate’ as comprised below:
The Drug Plate was incubated at 37° C. for 15 mins. 200 μl of each well was added in triplicate to the corresponding cell plate. The cell plate was incubated at 37 C, for 4 days.
On completion of the assay, 1/10 volume MTS was added per well of plate (i.e. 25 μl/250 μl). The plates were incubated at 37 C for 2 hrs, and then absorbance was read at 560 nm.

Structure (SMILES)	viability at 1 uM [1]	viability at 10 uM [1]	viability at 4 days, 1 uM [2]	viability at 4 days, 10 uM [2]
O=c1c2cccc(O)c2ncn1-c1ccc(F)cc1F	104%	104%	–	–
CCCCn1cnc2c(O)c(Cl)cc(Cl)c2c1=O	105%	95.4%	104%	85%
O=c1c2cccc(O)c2ncn1Cc1ccccc1	98.5%	90.4%	–	–
O=C(NCc1ccc(F)cc1)c1cnc2c(O)cccn2c1=O	76.7%	54.2%	–	–
CCC(C)Cn1cnc2c(O)c(I)ccc2c1=O (stereo not shown)	42.8%	19.3%	–	–
O=c1c2cccc(O)c2ncn1Cc1ccccn1	109%	96%	–	–
O=c1c2cccc(O)c2ncn1Cc1ccc(F)cc1	97.2%	60.5%	–	–
O=c1c(-c2ccc(Cl)cc2)cnc2c(O)cccn12	41.2%	25.8%	97%	42%
CCc1cnc2c(O)cccn2c1=O	96.1%	27.1%	–	–
CCc1cnc2c(O)cccn2c1=S	93.3%	73.7%	–	–
CCCCc1cnc2c(O)c(-c3ccc(F)cc3)ccn2c1=O	101%	37.9%	–	–
CCCCCn1cnc2c(O)c(I)ccc2c1=O	86.3%	38.5%	–	–
CNS(=O)(=O)Cc1ccc(-n2cnc3c(O)c(Cl)cc(Cl)c3c2=O)cc1	93%	98%	–	–
CCCCCn1cnc2c(O)c(Cl)cc(Cl)c2c1=O	81.3%	56.8%	–	–
CCCCc1cnc2c(O)c(-c3cccc(OC)c3)ccn2c1=O	94.5%	59.1%	–	–
CCN(CC)C(=O)Cn1cnc2c(O)c(I)ccc2c1=O	92.2%	98.7%	–	–
CCn1cnc2c(O)ccc(Cl)c2c1=O	101%	85.4%	–	–
O=C1NC(=O)c2cc(-n3cnc4c(O)cccc4c3=O)ccc21	102%	103%	–	–
O=c1c2c(Cl)cc(I)c(O)c2ncn1Cc1ccccn1	102%	99.2%	–	–
O=c1c2cccc(O)c2ncn1-c1nc2ccccc2[nH]1	108%	103%	–	–
O=c1c2c(Cl)cc(Cl)c(O)c2nc2n1CCC2	115%	93.9%	–	–
CCNCCn1cnc2c(O)c(Cl)cc(Cl)c2c1=O	100%	107%	–	–
CCC(C)Cn1cnc2c(O)cccc2c1=O (stereo not shown)	103%	47.2%	–	–
O=c1c(CCCC2CCSS2)cnc2c(O)cccn12 (stereo not shown)	106%	27.2%	–	–
O=c1c(-c2ccc(F)cc2)cnc2c(O)cccn12	75.3%	33.8%	–	–
COc1ccc(-n2cnc3c(O)cccc3c2=O)cn1	97.8%	110%	–	–

Structure (SMILES)	viability at 1 uM [1]	viability at 10 uM [1]	viability at 4 days, 1 uM [2]	viability at 4 days, 10 uM [2]
CCN(CC)C(=O)Cn1cnc2c(O)cccc2c1=O	118%	102%	–	–
O=c1c2c(Cl)cc(Cl)c(O)c2ncn1-c1nc2ccccc2s1	82.7%	63.9%	–	–
CCC(C)Cn1cnc2c(O)c(Cl)cc(Cl)c2c1=O (stereo not shown)	85.1%	39.4%	–	–
O=c1c2c(Cl)cc(Cl)c(O)c2ncn1CC1CCN(Cc2ccccc2)CC1	109%	83.4%	–	–
O=c1c2c(Cl)cc(Cl)c(O)c2ncn1CCN1Cc2ccccc2C1	103%	62.1%	–	–
CC(C)Cn1c(CN(C)C)nc2c(O)c(Cl)cc(Cl)c2c1=O	104%	61.5%	–	–
O=c1c2cccc(O)c2ncn1-c1cccnc1	106%	110%	–	–
O=C(Cn1cnc2c(O)cccc2c1=O)Nc1ccccn1	110%	98.2%	–	–
CCCCc1cnc2c(O)c(-c3ccc(OC)cc3)ccn2c1=O	79.2%	64.4%	–	–
CCN(CC)CCn1cnc2c(O)c(I)ccc2c1=O	106%	41.4%	–	–
CCCCc1cnc2c(O)c(-c3cccnc3)ccn2c1=O	92.1%	38.2%	–	–
O=c1c2c(Cl)cc(Cl)c(O)c2ncn1CCNC1CC1	98.8%	96.2%	–	–
O=C(Nc1ccc(F)cc1F)c1cnc2c(O)cccn2c1=O	99.4%	67.1%	–	–
CCN(CC)C(=O)Cn1cnc2c(O)c(Cl)cc(Cl)c2c1=O	122%	104%	–	–
O=c1c2ccc(I)c(O)c2ncn1-c1ccc(F)cc1	94.6%	30.2%	–	–
CCCn1cnc2c(O)ccc(Cl)c2c1=O	89.4%	79.4%	–	–
CCCNC(=O)Cn1cnc2c(O)c(I)ccc2c1=O	84.3%	95.5%	–	–
O=c1c2cccc(O)c2ncn1CC1CC1	104%	111%	–	–
O=C1c2ccccc2C(=O)N1CCn1cnc2c(O)cccc2c1=O	104%	106%	–	–
O=c1c2cccc(O)c2ncn1-c1ccc(F)cc1	92.7%	67.5%	–	–
O=c1c2c(Cl)ccc(O)c2ncn1Cc1ccccn1	93.6%	88.4%	–	–
O=C1c2ccccc2C(=O)N1CCn1cnc2c(O)c(I)ccc2c1=O	127%	105%	–	–
O=C(Nc1cnc2ccccc2c1)c1cnc2c(O)cccn2c1=O	102%	32.8%	–	–
CCN(CC)CCNC(=O)c1cnc2c(O)cccn2c1=O	115%	103%	–	–
O=c1c2c(Cl)cc(I)c(O)c2ncn1-c1cccnc1	97.4%	95%	–	–
O=c1c2c(Cl)ccc(O)c2ncn1CC1CC1	86.3%	57.6%	–	–

Structure (SMILES)	viability at 1 uM [1]	viability at 10 uM [1]	viability at 4 days, 1 uM [2]	viability at 4 days, 10 uM [2]
Oc1ccc(CCc2ccc3cccc(O)c3n2)cc1	–	–	89%	86%
Cc1nc2ccccc2c(=O)n1O	101%	115%	–	–
CCCS(=O)(=O)NCCn1cnc2c(O)c(I)ccc2c1=O	104%	98.6%	–	–
Oc1c(-c2ccccc2)cc(-c2ccccc2)c2cccnc12	–	–	97%	26%
CN(C)c1ccc(-c2cc(Cl)c3cccnc3c2O)cc1	–	–	94%	85%
CCCCNC(=O)c1cnc2c(O)cccn2c1=O	98.8%	48.4%	–	–
Oc1c(-c2ccccc2F)cc(Cl)c2cccnc12	–	–	96%	54%
O=c1c2cccc(O)c2ncn1-c1nc2ccc(F)cc2s1	99.1%	73.7%	–	–
CC(=O)NCc1ccc2cccc(O)c2n1	–	–	100%	91%
O=c1c2ccc(I)c(O)c2ncn1CCNS(=O)(=O)c1ccc(F)cc1	96.5%	43%	–	–
Oc1cccc2ccc(-c3ccccn3)nc12	–	–	107%	75%
O=c1c2cccc(O)c2ncn1CCc1ccccn1	107%	96.2%	–	–
Cc1noc(-n2cnc3c(O)c(Cl)cc(Cl)c3c2=O)c1C	99.6%	95.4%	–	–
CCCn1c(CNC)nc2c(O)c(Cl)cc(Cl)c2c1=O	–	–	110%	102%
Oc1c(Cl)cc(Cl)c2cc(Cl)cnc12	–	–	82%	55%
Cc1nccn1-c1ccc2cccc(O)c2n1	–	–	104%	96%
O=C(Nc1nc2ccc(F)cc2s1)c1cnc2c(O)cccn2c1=O	60.1%	34.2%	–	–
Oc1cccc2ccc(CN(Cc3ccccn3)Cc3ccccn3)nc12	–	–	87%	23%
O=c1c2cccc(O)c2ncn1Cc1ccncc1	105%	104%	–	–
NCCNC(=O)c1ccc2cccc(O)c2n1	–	–	106%	96%
O=c1c2cccc(O)c2ncn1Cc1nc2ccccc2[nH]1	107%	108%	–	–
Oc1cccc2ccc(CN(Cc3ccccn3)Cc3nccs3)nc12	–	–	97%	38%
O=C1c2ccccc2C(=O)N1CCn1cnc2c(O)c(Cl)cc(Cl)c2c1=O	104%	101%	–	–
CCCc1cnc2c(O)c(Cl)ccn2c1=O	98.1%	38.9%	–	–
O=C(NCCc1ccccn1)c1ccc2cccc(O)c2n1	–	–	95%	93%
Nc1ccccc1NC(=O)c1cc(O)c2cccc(O)c2n1	–	–	98%	82%
